For test [1], the system named is brain organoid of the versatile biohybrid robot. Description: Movement of the versatile biohybrid robot in co-culture media. The arrangement: species or system human. The conditions noted are these: brain organoid stimulated using glutamate; 0.27 cm/min before stimulation.
Another test deals with brain organoids. Description: Electrophysiological signal measurement of retinal/brain organoid conjugates using a multi-electrode array. Format: cell-based, human. Particulars: 100 μM glutamate mixed into the co-culture medium. As for the experimental part: The formation of conjugates of brain organoids and retinal organoids in Examples 1-3 above was confirmed through signal measurement using a multi-electrode array. Retinal/brain organoids were placed on electrodes of the multi-electrode array for signal measurement, and then the generation of electrophysiological signals was measured while light was applied to the retinal organoids. In addition, glutamate was added as a neurotransmitter to the co-culture medium used in the multi-electrode array, and electrophysiological signals generated from brain organoids were measured.

Turning to `N[C@@H](CCC(=O)O)C(=O)O` [glutamate], the “movement of the biohybrid robot after stimulation” value in test [1] amounted to 0.52 cm/min. Also, the “electrophysiological signals generated by stimulating brain organoids” value with brain organoids is “transmitted to the brain organoids”.

Values taken from US20260265689A1, “BIOHYBRID ROBOT INCLUDING RETINAL/BRAIN ORGANOID, MOTOR NERVE SPHEROID, AND MUSCLE BUNDLE, AND MANUFACTURING METHOD THEREFOR” (SOGANG UNIVERSITY RESEARCH & BUSINESS DEVELOPMENT FOUNDATION, priority 2023, published 2026).
